pEC50: −log10 of the molar value. Like-named read-outs stand apart in the source and are kept apart here.
Molecular target: mu-opioid receptor (MOR) (Homo sapiens (Human), UniProt P35372)
Assay: cell-based
Conditions: combined with a MOR antagonist; for AUC: AUC of [Ca2+]i fluorescence
Experimental: In an exemplary in vitro screening method for identifying antagonist-to-agonist allosteric modifiers of a MOR, cells that express a MOR are treated with a test compound and a MOR antagonist in a cellular calcium fluorescent assay and fluorescence intensity is then measured to determine whether the MOR is activated. A test compound is identified as an antagonist-to-agonist allosteric modifier of the MOR if the MOR is activated.
EC50 herein refers to the concentration of a compound that induces a response halfway between the baseline and the maximum after a specified exposure time. AUC refers to the area under the response curve, an indication of the compound's capability of activating a MOR when combined with a MOR antagonist.
Human embryonic kidney 293 (HEK-293) cells constitutively expressing MOR (HEK-MOR) and DOR (HEK-DOR) (kindly provided by Dr. Ping-Yee Law, University of Minnesota, USA) were cultured in high-glucose Dulbecco's modified Eagle's medium (DMEM, GIBCO) supplemented with 400 μg/mL G418 (Sigma), 2 mM L-glutamine and P/S/F (100 units/mL penicillin, 100 μg/mL streptomycin, 10% fetal bovine serum). Chinese hamster ovary (CHO)-K1 cells, stably expressing hMOR and Gα15 (CHO-K1/MOR/Gα15), were cultured in F12 medium (GIBCO) supplemented with 10 μg/mL Hygromycin B (Invivogen), 20 μg/mL Zeocin (Invivogen) P/S/F (100 units/mL penicillin, 100 μg/mL streptomycin, 10% fetal bovine serum). The cultures were incubated at 37° C. in a humidified 5% CO2 incubator.
One day before the assay, CORNING® black with clear flat bottom 96-well assay plates were coated with a 0.1 mg/mL Poly-L-Lysine solution. CHO-K1/MOR/Gα15 cells were suspended in the F12 medium and plated at a density of ˜8×10^4 cells/well in 200 μL medium. Cells were incubated in a humidified atmosphere of 10% CO2 at 37° C. overnight so as to reach an 80-90% confluent cell monolayer before assay. At the day of assay, 150 μL medium/well was removed from plate. To each well, 50 μL FLIPR® calcium assay reagent dissolved in 1× assay buffer (HBSS: KCl 5 mM, KH2PO4 0.3 mM, NaCl 138 mM, NaHCO3 4 mM, Na2HPO4 0.3 mM, d-glucose 5.6 mM, with additional 20 mM HEPES and 13 mM CaCl2, pH 7.4), with 2.5 mM probenecid was added and the plate was incubated at 37° C. for 1 h. Compounds and other reagents were dissolved in the assay buffer. Using a FlexStationIII (Molecular Devices Corp.), the [Ca^2+]i fluorescence increases after robotic injections of compounds or other reagents were monitored every 1.52 s interval with excitation wavelength at 485 nm and with emission wavelength at 525 nm. The [Ca^2+]i fluorescence was measured up to 90 s after agonist injection.
A CHO-K1 cell line, expressing a MOR and Gα15 (GenScript), was used to set up a sensitive high-throughput screen (HTS) system. In a FLIPR® calcium assay using CHO-K1/MOR/Gα15 cells, activation of MOR elicits an intracellular calcium release leading to an increase in the relative fluorescence units (FRU). […] The HTS was performed in the absence or presence of an opioid antagonist, naloxone (25 nM), to identify antagonist to agonist allosteric modifiers (AAM).
A CHO-K1 cell line, expressing a MOR and Gα15 (GenScript), was used to set up a sensitive assay system for detecting μ-opioid receptor activation. […] The assay was performed in the presence of an opioid antagonist, i.e., naloxone (25 nM), naltrexone (20 nM), samidorphan (10 nM), naloxonazine dihydrochloride (20 nM), β-funaltrexamine hydrochloride (20 nM), cyprodime hydrochloride (500 nM), or nalmefene (20 nM), in combination with compound 58, an antagonist to agonist allosteric modifier (AAM), to identify activation of the μ-opioid receptor.

Sequence of mu-opioid receptor (MOR) (P35372 whole entry): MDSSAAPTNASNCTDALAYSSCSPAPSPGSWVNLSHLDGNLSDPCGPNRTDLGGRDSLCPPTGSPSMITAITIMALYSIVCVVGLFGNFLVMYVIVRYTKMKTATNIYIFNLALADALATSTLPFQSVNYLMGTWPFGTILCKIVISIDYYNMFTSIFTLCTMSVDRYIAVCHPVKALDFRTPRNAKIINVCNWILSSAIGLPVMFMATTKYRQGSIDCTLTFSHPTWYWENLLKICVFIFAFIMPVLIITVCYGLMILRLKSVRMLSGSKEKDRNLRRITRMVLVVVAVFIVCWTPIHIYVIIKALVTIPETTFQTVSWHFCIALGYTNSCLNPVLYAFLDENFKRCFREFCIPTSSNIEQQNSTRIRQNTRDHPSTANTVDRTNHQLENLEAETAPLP

| Molecule | FLIPR Ca^2+ AUC | pEC50 (read-out: FLIPR Ca^2+ EC50) | pEC50 (EC50, CHO-K1/MOR/Gα15 cells) | AUC (CHO-K1/MOR/Gα15 cells) | pEC50 (CHO-K1/MOR/Gα15 cells, read-out: EC50) |
| --- | --- | --- | --- | --- | --- |
| Cc1cc(C(=O)NC2CCCCC2)ccc1N1C(=O)CSC1c1ccc(F)cc1 (stereo not drawn) [Example 339] | 7164 | 5.00 | – | – | – |
| CNC(=O)c1ccc(N2C(=O)CSC2c2ccc(F)cc2)c(C)c1 (stereo not drawn) [Example 331] | – | – | > 5.00 | – | – |
| COc1cc(C)c(N2C(=O)CSC2c2ccc(F)cc2)cc1OC (stereo not drawn) [Example 52] | 7780 | 5.44 | – | – | – |
| COC(=O)c1ccc(N2C(=O)CSC2c2ccoc2)c(C)c1 (stereo not drawn) [Example 416] | 6514 | 4.93 | – | more than 5000 | – |
| Cc1ccc(Br)cc1N1C(=O)CSC1c1ccc(F)cc1 (stereo not drawn) [Example 149] | 4427 | 5.36 | > 5.00 | – | – |
| Cc1c(N2C(=O)CSC2c2cccc(F)c2)c(=O)n(-c2ccccc2)n1C (stereo not drawn) [Example 404] | 7127 | 4.66 | – | more than 5000 | – |
| CONC(=O)c1ccc(N2C(=O)CSC2c2ccc(F)cc2)c(C)c1 (stereo not drawn) | 14236 | 5.38 | – | – | – |
| Cc1cc(C(=O)NCc2ccc(F)c(F)c2)ccc1N1C(=O)CSC1c1ccc(F)cc1 (stereo not drawn) [Example 378] | 15891 | 5.20 | > 5.00 | – | – |
| COCCOCCS(=O)(=O)NC(=O)c1ccc(N2C(=O)CSC2c2ccc(F)cc2)c(C)c1 (stereo not drawn) [Example 597, 4-[2-(4-Fluorophenyl)-4-oxo-1,3-thiazolidin-3-yl]-N-{[2-(2-methoxyethoxy)ethyl]sulfonyl}-3-methylbenzamide] | 10720 | 5.95 | > 5.00 | more than 5000 | – |
| CC(=O)c1ccc(C)c(N2C(=O)CSC2c2ccc(F)cc2)c1 (stereo not drawn) [Example 90] | – | – | > 5.00 | – | – |
| CC(C)(C)c1cc(N2C(=O)CSC2c2ccc(F)cc2)no1 (stereo not drawn) [Example 640, 3-(5-tert-Butyl-1,2-oxazol-3-yl)-2-(4-fluorophenyl)-1,3-thiazolidin-4-one] | 9872 | 4.85 | – | more than 5000 | – |
| Cc1cc(C(=O)NO)ccc1N1C(=O)CSC1c1ccc(F)cc1 (stereo not drawn) [Example 219] | 14222 | 5.19 | – | – | – |
| Cc1cc(C(=O)Nc2ccccc2)ccc1N1C(=O)CSC1c1ccc(F)cc1 (stereo not drawn) [Example 361] | 6128 | 5.06 | > 5.00 | more than 5000 | – |
| Cc1cc(C(=O)OCCOCCN)ccc1N1C(=O)CSC1c1ccc(F)cc1 (stereo not drawn) [Example 303] | 9530 | 5.15 | > 5.00 | more than 5000 | – |
| Cc1cc(C(=O)OCOC(=O)C(C)(C)C)ccc1N1C(=O)CSC1c1ccc(F)cc1 (stereo not drawn) [Example 273] | 12265 | 5.24 | > 5.00 | – | – |
| CCONC(=O)c1ccc(N2C(=O)CSC2c2ccc(F)cc2)c(C)c1 (stereo not drawn) [Example 215] | 10945 | 5.39 | – | – | – |
| CCOC(=O)N1CCC(NC(=O)c2ccc(N3C(=O)CSC3c3ccc(F)cc3)c(C)c2)CC1 (stereo not drawn) [Example 350] | 12979 | 5.36 | – | – | – |
| Cc1cc(C(=O)NCCCN2CCOCC2)ccc1N1C(=O)CSC1c1ccc(F)cc1 (stereo not drawn) [Example 347] | 12967 | 5.09 | – | – | – |
| Cc1cc(C(=O)OCc2cccnc2)ccc1N1C(=O)CSC1c1ccc(F)cc1 (stereo not drawn) [Example 261] | 11434 | 5.54 | > 5.00 | more than 5000 | – |
| Cc1cc(C(=O)OCCCc2ccccn2)ccc1N1C(=O)CSC1c1ccc(F)cc1 (stereo not drawn) [Example 263] | 14918 | 5.04 | > 5.00 | more than 5000 | – |

| Molecule | FLIPR Ca^2+ AUC | pEC50 (read-out: FLIPR Ca^2+ EC50) | pEC50 (EC50, CHO-K1/MOR/Gα15 cells) | AUC (CHO-K1/MOR/Gα15 cells) | pEC50 (CHO-K1/MOR/Gα15 cells, read-out: EC50) |
| --- | --- | --- | --- | --- | --- |
| Cc1cc(C(=O)OCCOCCOC(=O)c2ccc(N3C(=O)CSC3c3ccc(F)cc3)c(C)c2)ccc1N1C(=O)CSC1c1ccc(F)cc1 (stereo not drawn) [Example 390] | 7399 | 4.86 | – | more than 5000 | – |
| COc1ccccc1NC(=O)c1ccc(N2C(=O)CSC2c2ccc(F)cc2)c(C)c1 (stereo not drawn) [Example 373] | 12223 | 4.87 | – | more than 5000 | – |
| Cc1cc(C(=O)OCCc2scnc2C)ccc1N1C(=O)CSC1c1ccc(F)cc1 (stereo not drawn) [Example 266] | 12653 | 5.34 | – | – | – |
| Cc1cc(C(=O)NS(N)(=O)=O)ccc1N1C(=O)CSC1c1ccc(F)cc1 (stereo not drawn) [Example 173] | 14841 | 5.28 | – | – | – |
| N#Cc1ccc(N2C(=O)CSC2c2ccc(F)cc2)cc1 (stereo not drawn) [Example 37] | – | – | > 5.00 | – | – |
| CC(=O)OCCOC(=O)c1ccc(N2C(=O)CSC2c2ccc(F)cc2)c(C)c1 (stereo not drawn) [Example 272] | – | – | > 5.00 | – | – |
| COC(=O)Cc1ccc(N2C(=O)CSC2c2ccc(F)cc2)c(C)c1 (stereo not drawn) [Example 96] | 9657 | 5.00 | > 5.00 | more than 5000 | – |
| Cc1cc(C(=O)NOCc2ccccc2)ccc1N1C(=O)CSC1c1ccc(F)cc1 (stereo not drawn) [Example 217] | 9543 | 5.39 | – | – | – |
| CCONC(=O)c1ccc(N2C(=O)CSC2c2ccc(F)cc2)c(C)c1 (stereo not drawn) [Example 588, N-Ethoxy-4-[2-(4-fluorophenyl)-4-oxo-1,3-thiazolidin-3-yl]-3-methylbenzamide] | 9986 | 5.03 | > 5.00 | more than 5000 | – |
| Cc1cc(C(=O)NS(=O)(=O)C(C)C)ccc1N1C(=O)CSC1c1ccc(F)cc1 (stereo not drawn) [Example 165] | 11927 | 4.65 | – | more than 5000 | – |
| Cc1cc(C(=O)NCCc2cccc(F)c2)ccc1N1C(=O)CSC1c1ccc(F)cc1 (stereo not drawn) [Example 385] | 7501 | 5.41 | – | – | – |
| CCc1ccc(C2SCC(=O)N2c2cc(F)ccc2C)cc1 (stereo not drawn) [Example 117] | 7880 | 4.87 | – | more than 5000 | – |
| CCOC(=O)c1ccc(S(=O)(=O)NC(=O)c2ccc(N3C(=O)CSC3c3ccc(F)cc3)c(C)c2)cc1 (stereo not drawn) [Example 190] | 16512 | 5.62 | – | – | – |
| 4-[2-(4-Fluorophenyl)-4-oxo-1,3-thiazolidin-3-yl]-N-methoxy-3-methylbenzamide [Example 154] | 15447 | 5.43 | – | more than 5000 | > 5.00 |
| Cc1cc(C(=O)NCCc2cccc(Cl)c2)ccc1N1C(=O)CSC1c1ccc(F)cc1 (stereo not drawn) [Example 386] | 5727 | 5.38 | – | – | – |
| Cc1cc(C(=O)NS(=O)(=O)c2ccc(Cl)cc2)ccc1N1C(=O)CSC1c1ccc(F)cc1 (stereo not drawn) [Example 198] | 13313 | 6.30 | > 5.00 | more than 5000 | – |
| Cc1cc(C(=O)OCCC2CC2)ccc1N1C(=O)CSC1c1ccc(F)cc1 (stereo not drawn) [Example 238] | 15409 | 4.91 | – | more than 5000 | – |
| Cc1cc(C(=O)NS(=O)(=O)c2cccc3c(N(C)C)cccc23)ccc1N1C(=O)CSC1c1ccc(F)cc1 (stereo not drawn) [Example 210] | 9425 | 6.15 | > 5.00 | more than 5000 | – |
| CCN(CC)CCOC(=O)c1ccc(N2C(=O)CSC2c2ccc(F)cc2)c(C)c1 (stereo not drawn) [Example 292] | 10056 | 5.51 | – | – | – |

— patent publication US10544113B2 (priority 2016, dated 2020)
